This experiment has as its target T1, p300 (Homo sapiens, UniProt Q09472).
T1 construct: host or cells: A549 P300 HiBit cells
The experiment can be described thus: P300 degradation, HiBit technology in A549 P300 HiBit cells (2 h). In kind it is cell-based. The note with it: 2 hrs post treatment; for Dmax: A549, A549 P300 HiBit cells; for DC50: A549 P300 HiBit cells. An outline of the steps: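 A549 HiBiT knock-in cells seeded overnight at 37 °C, 5% CO2 in F-12K with 10% heat-inactivated FBS, then given serial dilutions of compound from 10 mM DMSO stocks. Lytic HiBiT detection reagent added for 10 min at room temperature; luminescence read. Potency and Dmax reported.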

T1 sequence (Q09472 whole entry): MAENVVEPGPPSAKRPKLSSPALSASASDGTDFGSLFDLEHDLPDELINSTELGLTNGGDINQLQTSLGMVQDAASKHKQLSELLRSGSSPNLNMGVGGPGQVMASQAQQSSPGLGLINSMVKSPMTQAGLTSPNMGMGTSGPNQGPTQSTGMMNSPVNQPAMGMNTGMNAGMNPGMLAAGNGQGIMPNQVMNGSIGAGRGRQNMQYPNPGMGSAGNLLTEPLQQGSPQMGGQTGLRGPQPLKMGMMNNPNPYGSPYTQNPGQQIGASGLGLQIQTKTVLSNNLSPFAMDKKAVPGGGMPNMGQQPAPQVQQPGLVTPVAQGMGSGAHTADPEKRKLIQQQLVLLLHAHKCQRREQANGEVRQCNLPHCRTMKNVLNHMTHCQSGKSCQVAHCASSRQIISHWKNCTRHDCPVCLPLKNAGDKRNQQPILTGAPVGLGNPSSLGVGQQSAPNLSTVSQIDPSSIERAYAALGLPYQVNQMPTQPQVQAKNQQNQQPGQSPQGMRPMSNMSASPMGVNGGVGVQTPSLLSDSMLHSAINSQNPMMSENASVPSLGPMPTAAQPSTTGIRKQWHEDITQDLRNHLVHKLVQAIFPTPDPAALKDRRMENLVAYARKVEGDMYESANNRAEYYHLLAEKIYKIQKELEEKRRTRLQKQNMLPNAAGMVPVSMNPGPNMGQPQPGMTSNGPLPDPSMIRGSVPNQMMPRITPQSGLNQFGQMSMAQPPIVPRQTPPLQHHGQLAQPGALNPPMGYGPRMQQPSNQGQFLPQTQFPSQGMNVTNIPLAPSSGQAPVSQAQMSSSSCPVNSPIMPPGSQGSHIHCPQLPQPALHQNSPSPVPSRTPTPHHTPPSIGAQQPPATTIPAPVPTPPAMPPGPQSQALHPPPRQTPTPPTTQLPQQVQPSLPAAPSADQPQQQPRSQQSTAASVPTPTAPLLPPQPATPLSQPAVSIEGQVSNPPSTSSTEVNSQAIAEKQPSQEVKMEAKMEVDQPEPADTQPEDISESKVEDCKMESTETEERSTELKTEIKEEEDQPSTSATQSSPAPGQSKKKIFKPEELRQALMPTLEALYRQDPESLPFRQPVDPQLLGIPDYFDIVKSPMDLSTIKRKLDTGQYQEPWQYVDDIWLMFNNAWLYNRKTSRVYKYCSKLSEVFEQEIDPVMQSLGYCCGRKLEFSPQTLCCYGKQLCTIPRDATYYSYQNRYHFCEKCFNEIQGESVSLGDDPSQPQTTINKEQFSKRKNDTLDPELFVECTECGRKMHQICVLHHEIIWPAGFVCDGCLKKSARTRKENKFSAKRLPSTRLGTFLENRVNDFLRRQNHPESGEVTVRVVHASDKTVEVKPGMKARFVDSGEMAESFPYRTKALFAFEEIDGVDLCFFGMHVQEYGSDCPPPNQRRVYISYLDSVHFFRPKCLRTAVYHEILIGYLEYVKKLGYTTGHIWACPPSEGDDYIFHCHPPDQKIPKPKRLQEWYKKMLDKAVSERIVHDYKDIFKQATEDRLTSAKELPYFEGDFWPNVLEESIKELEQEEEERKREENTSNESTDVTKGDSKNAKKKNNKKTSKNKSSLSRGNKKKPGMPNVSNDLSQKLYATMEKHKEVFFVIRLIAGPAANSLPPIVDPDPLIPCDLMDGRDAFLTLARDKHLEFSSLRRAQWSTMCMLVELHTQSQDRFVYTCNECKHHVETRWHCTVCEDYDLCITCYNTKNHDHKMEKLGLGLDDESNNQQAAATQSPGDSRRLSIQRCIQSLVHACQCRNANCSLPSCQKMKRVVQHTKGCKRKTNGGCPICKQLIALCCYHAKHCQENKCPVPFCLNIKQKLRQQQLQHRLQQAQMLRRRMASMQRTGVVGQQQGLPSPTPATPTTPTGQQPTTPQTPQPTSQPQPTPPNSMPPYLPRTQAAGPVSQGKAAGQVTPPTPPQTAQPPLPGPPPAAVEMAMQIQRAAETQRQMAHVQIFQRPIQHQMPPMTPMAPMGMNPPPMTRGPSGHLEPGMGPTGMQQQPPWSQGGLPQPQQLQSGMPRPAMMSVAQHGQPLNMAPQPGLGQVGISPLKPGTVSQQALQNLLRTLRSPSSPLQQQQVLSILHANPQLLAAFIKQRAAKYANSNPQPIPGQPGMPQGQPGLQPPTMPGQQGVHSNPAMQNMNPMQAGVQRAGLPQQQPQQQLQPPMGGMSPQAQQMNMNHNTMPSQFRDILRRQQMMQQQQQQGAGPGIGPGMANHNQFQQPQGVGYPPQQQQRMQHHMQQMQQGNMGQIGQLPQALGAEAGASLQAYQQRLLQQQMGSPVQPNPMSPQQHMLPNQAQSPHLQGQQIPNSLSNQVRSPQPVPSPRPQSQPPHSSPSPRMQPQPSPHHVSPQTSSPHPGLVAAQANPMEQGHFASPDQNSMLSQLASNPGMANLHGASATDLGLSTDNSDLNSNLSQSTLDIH

In the case of `Cc1cc2c(N3CCN(C)c4cc(-c5ccc(C(=O)NCC#Cc6ccc7occ(C8CCC(=O)NC8=O)c7c6)nc5)ncc43)cc(C3CCOCC3)cc2n(C)c1=O` (stereo not drawn) [Example B31, 5-(4-(1,3-dimethyl-2-oxo-7-(tetrahydro-2H-pyran-4-yl)-1,2-dihydroquinolin-5-yl)-1-methyl-1,2,3,4-tetrahydropyrido[3,4-b]pyrazin-7-yl)-N-(3-(3-(2,6-dioxopiperidin-3-yl)benzofuran-5-yl)prop-2-yn-1-yl) picolinamide], the Dmax is over 80% and the 50% degradation concentration (DC50) is under 1 nM.

On to `Cc1cc(N2CCN(C)c3nc(-c4ccc(C(=O)NCC#Cc5cc6c(C7CCC(=O)NC7=O)cccc6o5)nc4)ncc32)c2cc(C)c(=O)n(C)c2c1` (stereo not drawn) [Example B104, N-(3-(4-(2,6-dioxopiperidin-3-yl)benzofuran-2-yl)prop-2-yn-1-yl)-5-(8-methyl-5-(1,3,7-trimethyl-2-oxo-1,2-dihydroquinolin-5-yl)-5,6,7,8-tetrahydropteridin-2-yl)picolinamide], for which the maximal degradation (Dmax) is over 80% and the DC50 is 1 to 9.9 nM.

Turning to `CC(C#Cc1ccc2occ(C3CCC(=O)NC3=O)c2c1)NC(=O)c1ccc(-c2ncc(N(C)c3cc(C(C)C)c4c(c3)n(C)c(=O)n4C)cn2)cn1` (stereo not drawn) [Example A105, N-(4-(3-(2,6-dioxo-piperidin-3-yl)benzofuran-5-yl)but-3-yn-2-yl)-5-(5-((7-isopropyl-1,3-dimethyl-2-oxo-2,3-dihydro-1H-benzo [d]imidazol-5-yl)(methyl)amino)pyrimidin-2-yl)picolinamide], the Dmax was under 20% and the DC50 was over 1000 nM.

In turn, `Cn1c(=O)oc2cc(-c3cccc4cc(-c5ccc(C(=O)NCC#Cc6ccc7occ(C8CCC(=O)NC8=O)c7c6)nc5)ncc34)ccc21` (stereo not drawn) [Example A120, N-(3-(3-(2,6-dioxo-piperidin-3-yl)benzofuran-5-yl)prop-2-yn-1-yl)-5-(8-(3-methyl-2-oxo-2,3-dihydrobenzo[d]oxazol-6-yl)isoquinolin-3-yl)picolinamide] displayed a maximal degradation (Dmax) of under 20% and a DC50 of over 1000 nM.

For the compound `Cc1cc2c(N3CCOc4cc(-c5ccc(C(=O)NCC#Cc6ccc7occ(C8CCC(=O)NC8=O)c7c6)nc5)c(F)cc43)cc(F)cc2n(C)c1=O` (stereo not drawn) [Example B100, N-(3-(3-(2,6-dioxopiperidin-3-yl)benzofuran-5-yl)prop-2-yn-1-yl)-5-(6-fluoro-4-(7-fluoro-1,3-dimethyl-2-oxo-1,2-dihydroquinolin-5-yl)-3,4-dihydro-2H-benzo[b][1,4]oxazin-7-yl) picolinamide], the Dmax was over 80% and the DC50 was in the range of 1 to 9.9 nM.

Take `Cc1cc2c(N3CCCc4cc(-c5ccc(C(=O)NCC#Cc6ccc7occ(C8CCC(=O)NC8=O)c7c6)nc5)c(F)cc43)cc(C(C)C)cc2n(C)c1=O` (stereo not drawn) [Example B134, N-(3-(3-(2,6-dioxopiperidin-3-yl)benzofuran-5-yl)prop-2-yn-1-yl)-5-(7-fluoro-7′-isopropyl-1′,3′-dimethyl-2′-oxo-1′,2′,3,4-tetrahydro-2H-[1,5′-biquinolin]-6-yl)picolinamide]: the Dmax was over 80% and the 50% degradation concentration (DC50) fell in the range of 10 to 99 nM.

Turning to `Cc1cc(N2CCCc3nc(-c4ccc(C(=O)NCC#Cc5ccc6occ(C7CCC(=O)NC7=O)c6c5)nc4)ncc32)c2cc(C)c(=O)n(C)c2c1` (stereo not drawn) [Example B151, N-(3-(3-(2,6-dioxopiperidin-3-yl)benzofuran-5-yl)prop-2-yn-1-yl)-5-(5-(1,3,7-trimethyl-2-oxo-1,2-dihydroquinolin-5-yl)-5,6,7,8-tetrahydro-pyrido[3,2-d]pyrimidin-2-yl)picolinamide], the greatest degradation seen (Dmax) was over 80% and the DC50 was 1 to 9.9 nM.

In turn, `Cc1cc(-c2cccc3cc(-c4ccc(C(=O)NCC#Cc5cc6c(C7CCC(=O)NC7=O)cccc6o5)nc4)ncc23)cc2c1n(C)c(=O)n2C` (stereo not drawn) [Example A183, N-(3-(4-(2,6-dioxo-piperidin-3-yl)benzofuran-2-yl)prop-2-yn-1-yl)-5-(8-(1,3,7-trimethyl-2-oxo-2,3-dihydro-1H-benzo[d]imidazol-5-yl)isoquinolin-3-yl)picolinamide] registered a maximal degradation (Dmax) of over 80% and a DC50 of under 1 nM.

In the case of `Cc1cc(-c2ncc(N(C)c3cc4c(c(N5CCOCC5)n3)n(C)c(=O)n4C)cn2)cnc1C(=O)NCC#Cc1ccc2occ(C3CCC(=O)NC3=O)c2c1` (stereo not drawn) [Example A147, 5-(5-((1,3-dimethyl-4-morpholino-2-oxo-2,3-dihydro-1H-imidazo[4,5-c]pyridin-6-yl)(methyl)amino)pyrimidin-2-yl)-N-(3-(3-(2,6-dioxopiperidin-3-yl)benzofuran-5-yl)prop-2-yn-1-yl)-3-methylpicolinamide], the Dmax is under 20% and the DC50 is over 1000 nM.

`Cc1cc2c(N3CCCc4nc(-c5cnc(C(=O)NCC#Cc6ccc7occ(C8CCC(=O)NC8=O)c7c6)c(Cl)c5)ncc43)cccc2n(C)c1=O` (stereo not drawn) [Example B155, 3-chloro-5-(5-(1,3-dimethyl-2-oxo-1,2-dihydroquinolin-5-yl)-5,6,7,8-tetrahydro-pyrido[3,2-d]pyrimidin-2-yl)-N-(3-(3-(2,6-dioxopiperidin-3-yl)benzofuran-5-yl)prop-2-yn-1-yl)picolinamide] yielded a Dmax of over 80% and a DC50 of 1 to 9.9 nM.

In turn, `CC(C)c1cc(-c2cccc3cc(-c4ccc(C(=O)NCC#Cc5cc6c(C7CCC(=O)NC7=O)coc6cc5C#N)nc4)ncc23)cc2c1n(C)c(=O)n2C` (stereo not drawn) [Example A240, N-(3-(6-cyano-3-(2,6-dioxopiperidin-3-yl)benzofuran-5-yl)prop-2-yn-1-yl)-5-(8-(7-isopropyl-1,3-dimethyl-2-oxo-2,3-dihydro-1H-benzo [d]imidazol-5-yl)isoquinolin-3-yl)picolinamide] had a Dmax of 40 to 59% and a DC50 of 10 to 99 nM.

`Cn1c(=O)n(C)c2cc(N3CCOc4nc(-c5ccc(C(=O)NCC#Cc6ccc7nnn(C8CCC(=O)NC8=O)c7c6)nc5)ncc43)ccc21` (stereo not drawn) [Example A190, 5-(5-(1,3-dimethyl-2-oxo-2,3-dihydro-1H-benzo[d]imidazol-5-yl)-6,7-dihydro-5H-pyrimido[4,5-b][1,4]oxazin-2-yl)-N-(3-(1-(2,6-dioxopiperidin-3-yl)-1H-benzo[d] [1,2,3]triazol-6-yl)prop-2-yn-1-yl)picolinamide] returned a Dmax of 60 to 79% and a 50% degradation concentration (DC50) of 1 to 9.9 nM.

`Cc1cc(-c2cc3cccc(-c4ccc5c(c4)n(C)c(=O)n5C)c3cn2)cnc1C(=O)NCC#Cc1ccc2occ([C@H]3CCC(=O)NC3=O)c2c1` [Example A62, (R)-5-(8-(1,3-dimethyl-2-oxo-2,3-dihydro-1H-benzo[d]imidazol-5-yl)isoquinolin-3-yl)-N-(3-(3-(2,6-dioxo-piperidin-3-yl)benzofuran-5-yl)prop-2-yn-1-yl)-3-methylpicolinamide] registered a Dmax of over 80% and a DC50 of 1 to 9.9 nM.

`Cc1cc(-n2ccc(N(C)c3cc(C(C)C)c4c(c3)n(C)c(=O)n4C)cc2=O)cnc1C(=O)NCC#Cc1cccc(NC2CCC(=O)NC2=O)c1` (stereo not drawn) [Example A42, N-(3-(3-((2,6-dioxopiperidin-3-yl)amino)phenyl)prop-2-yn-1-yl)-4-((7-isopropyl-1,3-dimethyl-2-oxo-2,3-dihydro-1H-benzo [d]imidazol-5-yl)(methyl)amino)-5′-methyl-2-oxo-2H-[1,3′-bipyridine]-6′-carboxamide] gave a Dmax of over 80% and a DC50 of 1 to 9.9 nM.

In turn, `[2H]C([2H])([2H])N(c1cnc(-c2cnc(C(=O)NCC#Cc3ccc4occ(C5CCC(=O)NC5=O)c4c3)c(C)c2)nc1)c1cc(C2CCOCC2)c2c(c1)n(C)c(=O)n2C` (stereo not drawn) [Example A82, 5-(5-((1,3-dimethyl-2-oxo-7-(tetrahydro-2H-pyran-4-yl)-2,3-dihydro-1H-benzo [d]imidazol-5-yl) (methyl-d3)amino)pyrimidin-2-yl)-N-(3-(3-(2,6-dioxo-piperidin-3-yl)benzofuran-5-yl)prop-2-yn-1-yl)-3-methylpicolinamide] registered a Dmax of over 80% and a DC50 of 1 to 9.9 nM.

`Cn1c(=O)n(C)c2c(N3CC4CCC(C3)O4)nc(-c3cccc4cc(-c5ccc(C(=O)NCC#Cc6cc7c(C8CCC(=O)NC8=O)cccc7o6)nc5)ncc34)cc21` (stereo not drawn) [Example A253, 5-(8-(4-(8-oxa-3-azabicyclo[3.2.1]octan-3-yl)-1,3-dimethyl-2-oxo-2,3-dihydro-1H-imidazo[4,5-c]pyridin-6-yl)isoquinolin-3-yl)-N-(3-(4-(2,6-dioxopiperidin-3-yl)benzofuran-2-yl)prop-2-yn-1-yl)picolinamide] showed a Dmax of over 80% and a DC50 of under 1 nM.

`Cc1cc2c(N3CCCc4nc(-c5ccc(C(=O)NCC#Cc6cc7c(C8CCC(=O)NC8=O)cccc7o6)nc5)ncc43)cc(C3CCC(F)(F)CC3)nc2n(C)c1=O` (stereo not drawn) [Example B158, 5-(5-(2-(4,4-difluorocyclohexyl)-6,8-dimethyl-7-oxo-7,8-dihydro-1,8-naphthyridin-4-yl)-5,6,7,8-tetrahydropyrido[3,2-d]pyrimidin-2-yl)-N-(3-(4-(2,6-dioxopiperidin-3-yl)benzofuran-2-yl)prop-2-yn-1-yl)picolinamide] registered a maximal degradation (Dmax) of over 80% and a half-maximal degradation concentration (DC50) of 10 to 99 nM.

`CN1CCN(c2ccc3c(c2)n(C)c(=O)n3C)c2cc(C(F)(F)F)c(-c3ccc(C(=O)NCC#Cc4cc5c(C6CCC(=O)NC6=O)cccc5o4)nc3)cc21` (stereo not drawn) [Example A242, 5-(1-(1,3-dimethyl-2-oxo-2,3-dihydro-1H-benzo[d]imidazol-5-yl)-4-methyl-7-(trifluoromethyl)-1,2,3,4-tetrahydroquinoxalin-6-yl)-N-(3-(4-(2,6-dioxopiperidin-3-yl)benzofuran-2-yl)prop-2-yn-1-yl)picolinamide] came in with a maximal degradation (Dmax) of over 80% and a 50% degradation concentration (DC50) of 1 to 9.9 nM.

For the origin of these results see patent US20250114345A1, “COMPOUNDS AND COMPOSITIONS AS CBP/P300 DEGRADERS AND USES THEREOF” (Oncopia Therapeutics, Inc. d/b/a/ SK Life Science Labs, priority 2023, published 2025).
